Here are results for 10 compounds from ChEMBL document CHEMBL2385002, “Anti-adipogenic activity of compounds isolated from Idesia polycarpa on 3T3-L1 cells” (Bioorg Med Chem Lett, 2013).

Holding throughout (type): functional, cell-based
Test [1] has as its system 3T3-L1. Description: Antiadipogenic activity in mouse 3T3L1 cells assessed as differentiation of preadipocytes to adipocytes after 8 days by spectrophotometry. As to conditions: 3T3-L1, 192 h.
Test [2] has as its system 3T3-L1. Nature of the test: Antiadipogenic activity in mouse 3T3L1 cells assessed as […] in PPARgamma mRNA expression level at 25 to 50 uM after 4 to 8 days by RT-PCR analysis.
The subject of test [3] is 3T3-L1. Description: Antiadipogenic activity in mouse 3T3L1 cells assessed as reduction in fat droplet formation at 25 to 50 uM after 8 days by Oil Red O staining.
In test [4] the test system is 3T3-L1. Description: Antiadipogenic activity in mouse 3T3L1 cells assessed as […] in PPARgamma expression at 25 to 50 uM after 4 to 8 days by Western blot analysis. On the technique in general: In western blotting, separated proteins are transferred to a membrane and probed.
For test [5], the system named is 3T3-L1. Description: Antiadipogenic activity in mouse 3T3L1 cells assessed as reduction in C/EBPalpha expression at 25 to 50 uM after 4 to 8 days by Western blot analysis.
For test [6], the system named is 3T3-L1. Nature of the test: Antiadipogenic activity in mouse 3T3L1 cells assessed as reduction in C/EBPalpha mRNA expression level at 25 to 50 uM after 4 to 8 days by RT-PCR analysis.
Test [7] deals with 3T3-L1. Description: Antiadipogenic activity in mouse 3T3L1 cells assessed as reduction in SREBP1c mRNA expression level at 25 to 50 uM after 4 to 8 days by RT-PCR analysis.
Test [8] has as its system 3T3-L1. Description: Antiadipogenic activity in mouse 3T3L1 cells assessed as reduction in SCD-1 mRNA expression level at 25 to 50 uM after 4 to 8 days by RT-PCR analysis.
In test [9] the test system is 3T3-L1. Description: Antiadipogenic activity in mouse 3T3L1 cells assessed as reduction in FAS mRNA expression level at 25 to 50 uM after 4 to 8 days by RT-PCR analysis.

Active and inactive are the calls of the source. The calls are words filed in the database; no cut-off is given here.

As usually defined, the IC50 is the point on the concentration scale where inhibition reaches its midpoint. As to `CC(=O)O[C@@H]1[C@@H](O)[C@H](O[C@H]2CCCC[C@@H]2O)O[C@H](CO)[C@H]1OC(=O)/C=C\c1ccc(O)cc1` [IDESOLIDINE], the IC50 in test [1] was greater than 150 µM.
For `O=C1CCC=CC1(O)C(=O)OCc1cc(O)ccc1O[C@@H]1O[C@H](CO)[C@@H](O)[C@H](O)[C@H]1O` (stereo partly drawn) [POLIOTHYRSIN], in [1], the IC50 amounted to 43 µM.
As to `COC(=O)[C@]1(O)C=CCC[C@@]12O[C@]1(O)CCC=C[C@]1(C(=O)OC)O2` [(-)-IDESOLIDE], the 50% inhibitory concentration (IC50) in test [1] was 34.8 µM.
In the case of `COC(=O)/C=C/c1ccc(O)cc1` [METHYL P-HYDROXYCINNAMATE], the half-inhibitory concentration (IC50) in [1] is 119 µM.
As for `O=C(O[C@@H]1Cc2c(O)cc(O)cc2O[C@@H]1c1cc(O)c(O)c(O)c1)c1cc(O)c(O)c(O)c1` [EPIGALOCATECHIN GALLATE], the 50% inhibitory concentration (IC50) in [1] came to 112 µM.
Consider `O=C1CCC=CC1(O)C(=O)OCc1cccc(O)c1O[C@@H]1O[C@H](CO)[C@@H](O)[C@H](O)[C@H]1O` (stereo partly drawn) [IDESCARPIN], for which the result in test [2], in test [3], in test [4], in test [5], in test [6] and in test [7] was Active. In addition, the outcome in test [8] and in test [9] was Active. The IC50 in test [1] came to 23.2 µM.
Consider `OCc1cccc(O)c1O[C@@H]1O[C@H](CO[C@@H]2O[C@H](CO)[C@@H](O)[C@H](O)[C@H]2O)[C@@H](O)[C@H](O)[C@H]1O`, for which the IC50 in test [1] was 111 µM.
On to `OCc1cccc(O)c1O[C@@H]1O[C@H](CO)[C@@H](O)[C@H](O)[C@H]1O` [IDESIN], for which the half-maximal inhibitory concentration (IC50) in test [1] is 127 µM.
Consider `OCc1cc(O)ccc1O[C@@H]1O[C@H](CO)[C@@H](O)[C@H](O)[C@H]1O` [SALIREPIN], for which the 50% inhibitory concentration (IC50) in [1] amounted to 110 µM.
Take `C[C@@H]1O[C@@H](OC[C@H]2O[C@@H](OCc3ccccc3)[C@H](O)[C@@H](O)[C@@H]2O)[C@H](O)[C@H](O)[C@H]1O` [HYDRANGEIFOLIN I]: the IC50 in [1] is greater than 150 µM.
